Measured values from patent publication US4056673A, “Phosphonoacetic acid derivatives of nucleosides” (Hoffmann-La Roche Inc., priority 1976, dated 1977).
Read-outs that look alike come from different tables or passages of the source.

Key:
[1] = system: herpes simplex type 1 virus; test: animal or person; type: in vivo, mice (Swiss albino); conditions: intraperitoneally, -24, 0, +24 hr, mice, day 21, disodium salt; for ED50: Human alphaherpesvirus 1, ip, 504 h, read-out: PD50 (Protective Dose50)
pseudorabies virus = test: animal or person; type: in vivo, mice (Swiss albino); conditions: Suid alphaherpesvirus 1, in Mus musculus, ip, 504 h, read-out: PD50 (Protective Dose50)
[2] = system: herpes simplex type 2 virus; test: animal or person; type: in vivo, mice (Swiss albino); conditions: Human alphaherpesvirus 2, ip, 504 h, intraperitoneally, -24, 0, +24 hr, mice, day 21, read-out: PD50 (Protective Dose50)
KA-31 = conditions: for activity against KA-31 solid tumor (in words): 14 ip treatments
Ehrlich carcinoma = conditions: for C/T Index: Ehrlich carcinoma; for No. survivors/No. tested: mouse, in vivo, ip
leukemia L1210 ascites = test: Leukemia L1210 ascites in mice; type: in vivo; conditions: 100 mg/kg intraperitoneally, BDF1 mice
Marek's disease = conditions: poultry; U.S. Pat. No. 3,836,650; cited from earlier work
herpes simlpex infection = conditions: oral and topical; Shipkowitz et al. 1973; cited from earlier work

Compound: Nc1ncnc2c1ncn2[C@H]1C[C@H](O)[C@@H](COP(=O)(O)CC(=O)O)O1 [2'-Deoxyadenosine-5'-monocarboxymethylphosphonate, monoacetonate]
- ED50 [1]: 444 mg/kg

Compound: O=C(O)CP(=O)(O)OC[C@H]1O[C@@H](n2cc(I)c(=O)[nH]c2=O)C[C@@H]1O [5-Iodo-2'-deoxyuridine-5'-mono-carboxymethylphosphonate]
- ED50 [1]: 110 mg/kg

Compound: Nc1ncnc2c1ncn2[C@@H]1O[C@H](COP(=O)(O)CC(=O)O)[C@@H](O)[C@H]1O [Adenosine-5'-mono-carboxymethylphosphonate]
- ED50 (pseudorabies virus): 386 mg/kg
- ED50 [2]: 575 mg/kg
- ED50 [1]: 180 mg/kg

Compound: O=C(O)CP(=O)(O)OC[C@H]1O[C@@H](n2cc(F)c(=O)[nH]c2=O)C[C@@H]1O [Compound A, 5-Fluoro-2-deoxyuridine-5'-mono-carboxymethylphosphonate]
- activity against KA-31 solid tumor (in words) (KA-31; 6.25 mg/kg): not at 6.25 mg/kg
- activity against KA-31 solid tumor (in words) (KA-31; 12.5 mg/kg): activity was observed
- activity against KA-31 solid tumor (in words) (KA-31; 25 mg/kg): activity was observed
- C/T Index (KA-31; KA-31, 6.25 mg/kg ip × 14): 1.8
- C/T Index (KA-31; KA-31, 12.5 mg/kg ip × 14): 3.8
- C/T Index (KA-31; KA-31, 25 mg/kg ip × 14): 13.8
- activity against Ehrlich carcinoma (in words) (Ehrlich carcinoma; 6.25 mg/kg): inactive
- activity against Ehrlich carcinoma (in words) (Ehrlich carcinoma; 12.5 mg/kg): active
- activity against Ehrlich carcinoma (in words) (Ehrlich carcinoma; 25 mg/kg): active
- activity against Ehrlich carcinoma (in words) (Ehrlich carcinoma; 50 mg/kg): active
- C/T Index (Ehrlich carcinoma; 6.25 mg/kg ip × 8): 1.5
- C/T Index (Ehrlich carcinoma; 12.5 mg/kg ip × 8): 2.4
- C/T Index (Ehrlich carcinoma; 25 mg/kg ip × 8): 3.4
- C/T Index (Ehrlich carcinoma; 50 mg/kg ip × 8): 12.1
- No. survivors/No. tested (Ehrlich carcinoma; 6.25 mg/kg): 16/16
- No. survivors/No. tested (Ehrlich carcinoma; 12.5 mg/kg): 24/24
- No. survivors/No. tested (Ehrlich carcinoma; 25 mg/kg): 23/24
- No. survivors/No. tested (Ehrlich carcinoma; 50 mg/kg): 21/24
- activity against leukemia L1210 ascites (in words) (leukemia L1210 ascites): inactive
- activity against sarcoma 180 (in words) (sarcoma 180; 12.5 mg/kg): inactive
- activity against sarcoma 180 (in words) (sarcoma 180; 25 mg/kg): active
- activity against sarcoma 180 (in words) (sarcoma 180; 50 mg/kg): active
- C/T Index (sarcoma 180; sarcoma 180, 12.5 mg/kg ip × 8): 1.7
- C/T Index (sarcoma 180; sarcoma 180, 25 mg/kg ip × 8): 2.2
- C/T Index (sarcoma 180; sarcoma 180, 50 mg/kg ip × 8): 5.9

Compound: Nc1nc2c(ncn2[C@@H]2O[C@H](COP(=O)(O)CC(=O)O)[C@@H](O)[C@H]2O)c(=O)[nH]1 [Guanosine-5'-mono-carboxymethylphosphonate]
- ED50 [1]: 144 mg/kg

Compound: O=C(O)CP(=O)(O)O [Phosphonoacetic acid]
- usefulness in combating Marek's disease (in words) (Marek's disease): useful in combating Marek's disease in poultry
- antiviral activity against herpes simplex infection (in words) (herpes simlpex infection): antiviral agent exhibiting oral and topical activity against herpes simlpex infection

Compound: Cc1cn([C@H]2C[C@H](O)[C@@H](COP(=O)(O)CC(=O)O)O2)c(=O)[nH]c1=O [Thymidine-5'-mono-carboxymethylphosphonate]
- ED50 [1]: 185 mg/kg

Compound: O=C(O)CP(=O)(O)OC[C@H]1O[C@@H](n2ccc(=O)[nH]c2=O)[C@H](O)[C@@H]1O [Uridine-5'-mono-carboxymethylphosphonate]
- ED50 [1]: 127 mg/kg

Compound: Adenosine-2'-(or 3'),5'-bis-carboxymethylphosphonate
- PD50 (Protective Dose50) ([1]; 30240 min): 197 mg/kg
